Data on six compounds can be found in patent publication US20250376432A1, “PROCESS FOR PREPARING MODULATORS OF EUKARYOTIC INITIATION FACTOR 2B” (Denali Therapeutics Inc., priority 2022, published 2025).

A short description of data set [1]: Dynamic Vapor Sorption (DVS) analysis / hygroscopicity of salt forms. Type of data set: physicochemical. To be noted: for Hygroscopicity by DVS analysis / Hygroscopicity: DVS at 25° C.; for Hygroscopicity: Table 4. The procedure:
DVS analysis was carried out using a Surface Measurement System DVS Intrinsic analyzer (SMS, UK). The instrument balance was calibrated with standard weights. Approximately 15-20 mg of sample was loaded into a pan for analysis. The sample was analyzed at 25° C. in 10% relative humidity (RH) steps from 50% to 95% RH (adsorption cycle), from 95% to 0% RH (desorption cycle), and from 0% to 50% RH (adsorption cycle). The movement from one step to the next occurred either after satisfying the equilibrium criterion of 0.002% weight change (dm/dt) or, if the equilibrium criterion was not met, after six hours. […]

Data set [2] is described as follows: Solid form stability (physical by XRPD, chemical by GC purity) under stress storage. Type of data set: physicochemical. To be noted: for 25° C./60% RH 2-weeks stability, Purity (%) / 40° C./75% RH 2-weeks stability, Purity (%) / 60° C. 2 weeks stability, Purity (%): GC purity; for 60° C. 2 weeks stability, XRPD: about 20 mg in glass weighing bottles. The procedure: Standard XRPD patterns were collected using a Bruker D8 Advance diffractometer (Bruker, GER). The X-ray source is a copper (Cu) tube that was operated at 40 kV and 40 mA. Powder samples were prepared on zero-background silicon (Si) holders using manual light pressure to keep the sample surfaces flat. Each sample was analyzed from 3 to 45° 2θ with an effective step size of 0.02° 2θ and 0.08 s exposure time.
Shimadzu GC-2104 (Shimadzu, Japan) was utilized for chemical purity characterization.
Several salts were further investigated for hygroscopicity, purity, and solid form stability. To determine solid form stability, glass weighing bottles containing about 20 mg samples were kept under (1) 60° C., (2) 25° C./60% RH, and (3) 40° C./75% RH conditions, respectively. After 1 week and 2 weeks, respectively, XRPD and GC analyses were conducted to investigate the physical and chemical stability of the selected forms under corresponding conditions.

With `NC(CO)(CO)CO.O=C(O)[C@H]1C[C@@H](OC(F)(F)F)C1` [VIa-1a, TMA salt Form A], the “DVS weight gain at 0% RH” value in data set [1] (0% RH, 25° C.) is given as “about 7%”. Further, in data set [1] (25° C.), the “DVS weight gain at 80% RH” value was “about 0.1%” and the “DVS weight gain at 95% RH” value is on record as “about 47%”. For the same compound, in data set [1], the “Hygroscopicity by DVS analysis” value is listed as “non-hygroscopic”, the Hygroscopicity entry is “non-” and the “Deliquescence with high humidity” value was “may deliquesce with high humidity (>90% RH)”. Also, in data set [2], the “25° C./60% RH 2-weeks stability, XRPD” value is on record as “No change”; the “25° C./60% RH 2-weeks stability, Purity (%)” value was 99.4%; the “40° C./75% RH 2-weeks stability, XRPD” value is on record as “No change”; the “40° C./75% RH 2-weeks stability, Purity (%)” value amounted to 99.3%. In addition, in data set [2], the “60° C. 2 weeks stability, Purity (%)” value is 99.3% and the “60° C. 2 weeks stability, XRPD” value is recorded as “No change”.
Take `N=C(N)NCCC[C@H](N)C(=O)O.O=C(O)[C@H]1C[C@@H](OC(F)(F)F)C1` [VIa-1a, L-Arginine salt Form A]: in data set [1], the Hygroscopicity entry was “hygroscopic”. In data set [2], the “25° C./60% RH 2-weeks stability, XRPD” value is “No change”; the “25° C./60% RH 2-weeks stability, Purity (%)” value stood at 98.8%; the “40° C./75% RH 2-weeks stability, XRPD” value is “Deliquesced”; the “60° C. 2 weeks stability, Purity (%)” value is recorded as 99.2%. The “60° C. 2 weeks stability, XRPD” value in data set [2] was “additional peak”.
For the compound `C1CCC(NC2CCCCC2)CC1.O=C(O)[C@H]1C[C@@H](OC(F)(F)F)C1` [VIa-1a DCHA salt Form A], in data set [1], the “Hygroscopicity by DVS analysis” value is listed as “non-hygroscopic”. Also, the “Form conversion after DVS test” value in data set [1] (after DVS test) is recorded as “no form conversion was detected”.
Consider `C1CCC(NC2CCCCC2)CC1.O=C(O)[C@H]1C[C@@H](OC(F)(F)F)C1` [VIa-1a, DCHA salt Form A], for which the Hygroscopicity result in data set [1] is “non-”. Also, in data set [2], the “25° C./60% RH 2-weeks stability, XRPD” value is “No change”; the “25° C./60% RH 2-weeks stability, Purity (%)” value is 99.7%; the “40° C./75% RH 2-weeks stability, XRPD” value is “No change”; the “40° C./75% RH 2-weeks stability, Purity (%)” value was determined as 99.3%. Further, the “60° C. 2 weeks stability, XRPD” value in data set [2] is “Sublimed”.
With `CC(C)(C)N.O=C(O)[C@H]1C[C@@H](OC(F)(F)F)C1` [VIa-1a, TBA salt Form A], the Hygroscopicity result in data set [1] is “non-”. For the same compound, the “60° C. 2 weeks stability, XRPD” value in data set [2] was “Sublimed^&”.
For the compound `N=C(N)NCCC[C@H](N)C(=O)O.O=C(O)[C@H]1C[C@@H](OC(F)(F)F)C1` [VIa-1a, L-arginine salt Form A], in data set [1] (25° C.), the “DVS weight gain at 80% RH” value is “about 28%” and the “DVS weight gain at 95% RH” value is reported as “about 74%”. Besides, in data set [1], the “Hygroscopicity by DVS analysis” value is recorded as “high hygroscopicity” and the “Deliquescence with high humidity” value is listed as “deliquesced with high humidity”.
